In patent publication US20230002367A1, “BIFUNCTIONAL COMPOUNDS” (Hoffmann-La Roche Inc., priority 2019, published 2023):

Molecular target: T1, SMARCA2 (Homo sapiens, UniProt P51531)
T1 construct: endogenous in cells
Assay: SMARCA2 HiBiT degradation assay (cellular)
Type: cell-based
Settings: for Emax: A549, Emax = amount of residual protein remaining in the cell following compound treatment; for DC50: SMARCA2 HiBiT cells, luminescence readout, 11-point titration from 10 μM, 6 hours or 16 hours, read-out: HiBit A549 SMARCA2 IP

T1 sequence (P51531 whole entry): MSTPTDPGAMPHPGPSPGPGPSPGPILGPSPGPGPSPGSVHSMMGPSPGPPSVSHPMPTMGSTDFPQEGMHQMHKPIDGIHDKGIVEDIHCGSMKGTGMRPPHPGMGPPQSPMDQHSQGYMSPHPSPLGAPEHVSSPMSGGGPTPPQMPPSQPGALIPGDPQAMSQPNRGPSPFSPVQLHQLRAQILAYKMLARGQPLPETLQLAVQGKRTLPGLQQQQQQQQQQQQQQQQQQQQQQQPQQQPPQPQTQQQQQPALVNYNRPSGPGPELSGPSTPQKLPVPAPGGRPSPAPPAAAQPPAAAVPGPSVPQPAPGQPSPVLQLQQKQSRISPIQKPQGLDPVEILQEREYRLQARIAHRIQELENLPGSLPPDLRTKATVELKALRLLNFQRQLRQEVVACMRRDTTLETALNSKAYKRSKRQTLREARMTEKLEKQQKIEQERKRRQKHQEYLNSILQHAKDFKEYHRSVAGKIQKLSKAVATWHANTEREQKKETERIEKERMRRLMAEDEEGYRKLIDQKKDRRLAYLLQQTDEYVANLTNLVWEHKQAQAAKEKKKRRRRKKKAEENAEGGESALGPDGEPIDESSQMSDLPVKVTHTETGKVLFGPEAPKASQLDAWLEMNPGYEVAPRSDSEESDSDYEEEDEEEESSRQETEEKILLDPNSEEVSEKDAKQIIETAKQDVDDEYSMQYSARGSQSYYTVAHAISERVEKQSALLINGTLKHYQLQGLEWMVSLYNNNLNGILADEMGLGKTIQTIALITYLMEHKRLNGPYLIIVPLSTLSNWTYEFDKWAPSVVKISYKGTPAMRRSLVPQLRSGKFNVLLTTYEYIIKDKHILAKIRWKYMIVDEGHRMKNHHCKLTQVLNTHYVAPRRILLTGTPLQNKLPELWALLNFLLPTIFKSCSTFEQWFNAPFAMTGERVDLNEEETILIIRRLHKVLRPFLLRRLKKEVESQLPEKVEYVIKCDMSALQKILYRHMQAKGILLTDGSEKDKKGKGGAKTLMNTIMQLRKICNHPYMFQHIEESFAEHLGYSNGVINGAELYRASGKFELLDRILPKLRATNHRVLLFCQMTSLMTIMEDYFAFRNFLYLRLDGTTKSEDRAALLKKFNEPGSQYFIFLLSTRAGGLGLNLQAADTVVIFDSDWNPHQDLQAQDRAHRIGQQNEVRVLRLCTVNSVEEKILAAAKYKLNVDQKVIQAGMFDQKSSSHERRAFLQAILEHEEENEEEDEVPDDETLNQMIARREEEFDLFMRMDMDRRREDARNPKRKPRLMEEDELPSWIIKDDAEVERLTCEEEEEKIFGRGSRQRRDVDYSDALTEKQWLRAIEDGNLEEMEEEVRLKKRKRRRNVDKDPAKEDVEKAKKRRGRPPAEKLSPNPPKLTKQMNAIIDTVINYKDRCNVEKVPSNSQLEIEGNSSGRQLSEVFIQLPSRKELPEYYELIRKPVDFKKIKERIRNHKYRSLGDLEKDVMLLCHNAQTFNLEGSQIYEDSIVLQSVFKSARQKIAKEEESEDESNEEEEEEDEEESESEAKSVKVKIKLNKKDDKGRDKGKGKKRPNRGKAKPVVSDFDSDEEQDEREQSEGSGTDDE

Row | SMILES | Emax [%] | DC50 [nM]
1 | Cc1ncsc1-c1ccc([C@H](C)NC(=O)[C@@H]2C[C@@H](O)CN2C(=O)[C@@H](NC(=O)CCCCCC(=O)N2CCN(CCOc3cccc(N4CCCC(Oc5cc(-c6ccccc6O)nnc5N)C4)c3)CC2)C(C)(C)C)cc1 (mixture of isomers) [Example 70, rac-(2S,4R)-4-hydroxy-1-[rac-(2S)-2-[[7-[4-[2-[3-[3-[3-amino-6-(2-hydroxyphenyl)pyridazin-4-yl]oxy-1-piperidyl]phenoxy]ethyl]piperazin-1-yl]-7-oxo-heptanoyl]amino]-3,3-dimethyl-butanoyl]-N-[rac-(1S)-1-[4-(4-methylthiazol-5-yl)phenyl]ethyl]pyrrolidine-2-carboxamide] | 50 | 1180
2 | Cc1ncsc1-c1ccc([C@H](C)NC(=O)[C@@H]2C[C@@H](O)CN2C(=O)[C@@H](NC(=O)CCCCCCCCC(=O)N2CCN(CCOc3cccc(N4CCCC(Oc5cc(-c6ccccc6O)nnc5N)C4)c3)CC2)C(C)(C)C)cc1 (mixture of isomers) [Example 71, rac-(2S,4R)-4-hydroxy-1-[rac-(2S)-2-[[10-[4-[2-[3-[3-[3-amino-6-(2-hydroxyphenyl)pyridazin-4-yl]oxy-1-piperidyl]phenoxy]ethyl]piperazin-1-yl]-10-oxo-decanoyl]amino]-3,3-dimethyl-butanoyl]-N-[rac-(1S)-1-[4-(4-methylthiazol-5-yl)phenyl]ethyl]pyrrolidine-2-carboxamide] | 38 | 522
3 | Cc1ncsc1-c1ccc([C@H](C)NC(=O)[C@@H]2C[C@@H](O)CN2C(=O)[C@@H](NC(=O)CCCCCCCCCCC(=O)N2CCN(CCOc3cccc(N4CCCC(Oc5cc(-c6ccccc6O)nnc5N)C4)c3)CC2)C(C)(C)C)cc1 (mixture of isomers) [Example 72, rac-(2S,4R)-4-hydroxy-1-[rac-(2S)-2-[[12-[4-[2-[3-[3-[3-amino-6-(2-hydroxyphenyl)pyridazin-4-yl]oxy-1-piperidyl]phenoxy]ethyl]piperazin-1-yl]-12-oxo-dodecanoyl]amino]-3,3-dimethyl-butanoyl]-N-[rac-(1S)-1-[4-(4-methylthiazol-5-yl)phenyl]ethyl]pyrrolidine-2-carboxamide] | 35 | 421
4 | Cc1ncsc1-c1ccc([C@H](C)NC(=O)[C@@H]2C[C@@H](O)CN2C(=O)[C@@H](NC(=O)CCCCCCNC(=O)C(c2ccccc2)n2cc(-c3cc(-c4ccccc4O)nnc3N)cn2)C(C)(C)C)cc1 (mixture of isomers) [Example 75, rac-(2S,4R)-4-hydroxy-1-[rac-(2S)-2-[7-[[2-[4-[3-amino-6-(2-hydroxyphenyl)pyridazin-4-yl]pyrazol-1-yl]-2-phenyl-acetyl]amino]heptanoylamino]-3,3-dimethyl-butanoyl]-N-[rac-(1S)-1-[4-(4-methylthiazol-5-yl)phenyl]ethyl]pyrrolidine-2-carboxamide] | 26 | 777
5 | Cc1ncsc1-c1ccc([C@H](C)NC(=O)[C@@H]2C[C@@H](O)CN2C(=O)[C@@H](NC(=O)CCCCCCCCCCCCC(=O)N2CCN(c3ccc(N4CCCC(Oc5cc(-c6ccccc6O)nnc5N)C4)cc3)CC2)C(C)(C)C)cc1 (mixture of isomers) [Example 76, rac-(2S,4R)-4-hydroxy-1-[rac-(2S)-2-[[14-[4-[4-[3-[3-amino-6-(2-hydroxyphenyl)pyridazin-4-yl]oxy-1-piperidyl]phenyl]piperazin-1-yl]-14-oxo-tetradecanoyl]amino]-3,3-dimethyl-butanoyl]-N-[rac-(1S)-1-[4-(4-methylthiazol-5-yl)phenyl]ethyl]pyrrolidine-2-carboxamide] | 31 | 207
6 | Cc1ncsc1-c1ccc([C@H](C)NC(=O)[C@@H]2C[C@@H](O)CN2C(=O)[C@@H](NC(=O)CCCCCC(=O)N2CCN(CCOc3ccc(N4CCCC(Oc5cc(-c6ccccc6O)nnc5N)C4)cc3)CC2)C(C)(C)C)cc1 (mixture of isomers) [Example 77, rac-(2S,4R)-4-hydroxy-1-[rac-(2S)-2-[[7-[4-[2-[4-[3-[3-amino-6-(2-hydroxyphenyl)pyridazin-4-yl]oxy-1-piperidyl]phenoxy]ethyl]piperazin-1-yl]-7-oxo-heptanoyl]amino]-3,3-dimethyl-butanoyl]-N-[rac-(1S)-1-[4-(4-methylthiazol-5-yl)phenyl]ethyl]pyrrolidine-2-carboxamide] | 24 | 244
7 | Cc1ncsc1-c1ccc([C@H](C)NC(=O)[C@@H]2C[C@@H](O)CN2C(=O)[C@@H](NC(=O)CCCCCCCCC(=O)N2CCN(Cc3cccc(C(C)Oc4cc(-c5ccccc5O)nnc4N)c3)CC2)C(C)(C)C)cc1 (mixture of isomers) [Example 82, rac-(2S,4R)-4-hydroxy-1-[rac-(2S)-2-[[10-[4-[[3-[l-[3-amino-6-(2-hydroxyphenyl)pyridazin-4-yl]oxyethyl]phenyl]methyl]piperazin-1-yl]-10-oxo-decanoyl]amino]-3,3-dimethyl-butanoyl]-N-[rac-(1S)-1-[4-(4-methylthiazol-5-yl)phenyl]ethyl]pyrrolidine-2-carboxamide] | 62 | 586
8 | Cc1ncsc1-c1ccc([C@H](C)NC(=O)[C@@H]2C[C@@H](O)CN2C(=O)[C@@H](NC(=O)CCCCCCCCCNC(=O)C(c2ccccc2)n2cc(-c3cc(-c4ccccc4O)nnc3N)cn2)C(C)(C)C)cc1 (mixture of isomers) [Example 88, rac-(2S,4R)-4-hydroxy-1-[rac-(2S)-2-[10-[[2-[4-[3-amino-6-(2-hydroxyphenyl)pyridazin-4-yl]pyrazol-1-yl]-2-phenyl-acetyl]amino]decanoylamino]-3,3-dimethyl-butanoyl]-N-[rac-(1S)-1-[4-(4-methylthiazol-5-yl)phenyl]ethyl]pyrrolidine-2-carboxamide] | 29 | 423
9 | Cc1ncsc1-c1ccc([C@H](C)NC(=O)[C@@H]2C[C@@H](O)CN2C(=O)[C@@H](NC(=O)CCCCCC(=O)N2CCN(c3cccc(N4CCCC(Oc5cc(-c6ccccc6O)nnc5N)C4)c3)CC2)C(C)(C)C)cc1 (mixture of isomers) [Example 90, rac-(2S,4R)-4-hydroxy-1-[rac-(2S)-2-[[7-[4-[3-[3-[3-amino-6-(2-hydroxyphenyl)pyridazin-4-yl]oxy-1-piperidyl]phenyl]piperazin-1-yl]-7-oxo-heptanoyl]amino]-3,3-dimethyl-butanoyl]-N-[rac-(1S)-1-[4-(4-methylthiazol-5-yl)phenyl]ethyl]pyrrolidine-2-carboxamide] | 34 | 1320
10 | Cc1ncsc1-c1ccc([C@H](C)NC(=O)[C@@H]2C[C@@H](O)CN2C(=O)[C@@H](NC(=O)CCCCCCCCC(=O)N2CCN(c3cccc(N4CCCC(Oc5cc(-c6ccccc6O)nnc5N)C4)c3)CC2)C(C)(C)C)cc1 (mixture of isomers) [Example 91, rac-(2S,4R)-4-hydroxy-1-[rac-(2S)-2-[[10-[4-[3-[3-[3-amino-6-(2-hydroxyphenyl)pyridazin-4-yl]oxy-1-piperidyl]phenyl]piperazin-1-yl]-10-oxo-decanoyl]amino]-3,3-dimethyl-butanoyl]-N-[rac-(1S)-1-[4-(4-methylthiazol-5-yl)phenyl]ethyl]pyrrolidine-2-carboxamide] | 44 | 600

Results, then the molecule that gave them:

Row | Emax [%] | DC50 [nM] | SMILES
11 | 20 | 63 | Cc1ncsc1-c1ccc([C@H](C)NC(=O)[C@@H]2C[C@@H](O)CN2C(=O)[C@@H](NC(=O)CCCCCCCCC(=O)N2CCN(CCOc3ccc(N4CCCC(Oc5cc(-c6ccccc6O)nnc5N)C4)cc3)CC2)C(C)(C)C)cc1 (mixture of isomers) [Example 78, rac-(2S,4R)-4-hydroxy-1-[rac-(2S)-2-[[10-[4-[2-[4-[3-[3-amino-6-(2-hydroxyphenyl)pyridazin-4-yl]oxy-1-piperidyl]phenoxy]ethyl]piperazin-1-yl]-10-oxo-decanoyl]amino]-3,3-dimethyl-butanoyl]-N-[rac-(1S)-1-[4-(4-methylthiazol-5-yl)phenyl]ethyl]pyrrolidine-2-carboxamide]
12 | 21 | 78 | Cc1ncsc1-c1ccc([C@H](C)NC(=O)[C@@H]2C[C@@H](O)CN2C(=O)[C@@H](NC(=O)CCCCCCCCCCC(=O)N2CCN(CCOc3ccc(N4CCCC(Oc5cc(-c6ccccc6O)nnc5N)C4)cc3)CC2)C(C)(C)C)cc1 (mixture of isomers) [Example 79, rac-(2S,4R)-4-hydroxy-1-[rac-(2S)-2-[[12-[4-[2-[4-[3-[3-amino-6-(2-hydroxyphenyl)pyridazin-4-yl]oxy-1-piperidyl]phenoxy]ethyl]piperazin-1-yl]-12-oxo-dodecanoyl]amino]-3,3-dimethyl-butanoyl]-N-[rac-(1S)-1-[4-(4-methylthiazol-5-yl)phenyl]ethyl]pyrrolidine-2-carboxamide]
13 | 25 | 383 | Cc1ncsc1-c1ccc([C@H](C)NC(=O)[C@@H]2C[C@@H](O)CN2C(=O)[C@@H](NC(=O)CCCCCCCCCCCCC(=O)N2CCN(CCOc3ccc(N4CCCC(Oc5cc(-c6ccccc6O)nnc5N)C4)cc3)CC2)C(C)(C)C)cc1 (mixture of isomers) [Example 80, rac-(2S,4R)-4-hydroxy-1-[rac-(2S)-2-[[14-[4-[2-[4-[3-[3-amino-6-(2-hydroxyphenyl)pyridazin-4-yl]oxy-1-piperidyl]phenoxy]ethyl]piperazin-1-yl]-14-oxo-tetradecanoyl]amino]-3,3-dimethyl-butanoyl]-N-[rac-(1S)-1-[4-(4-methylthiazol-5-yl)phenyl]ethyl]pyrrolidine-2-carboxamide]
14 | 34 | 504 | Cc1ncsc1-c1ccc([C@H](C)NC(=O)[C@@H]2C[C@@H](O)CN2C(=O)[C@@H](NC(=O)CCCCCCCCCCCCC(=O)N2CCN(CCOc3cccc(N4CCCC(Oc5cc(-c6ccccc6O)nnc5N)C4)c3)CC2)C(C)(C)C)cc1 (mixture of isomers) [Example 81, rac-(2S,4R)-4-hydroxy-1-[rac-(2S)-2-[[14-[4-[2-[3-[3-[3-amino-6-(2-hydroxyphenyl)pyridazin-4-yl]oxy-1-piperidyl]phenoxy]ethyl]piperazin-1-yl]-14-oxo-tetradecanoyl]amino]-3,3-dimethyl-butanoyl]-N-[rac-(1S)-1-[4-(4-methylthiazol-5-yl)phenyl]ethyl]pyrrolidine-2-carboxamide]
